Laboratory results: patent US11471444B2, “Methods of inhibiting tumor metastasis” (Vanderbilt University, priority 2017, dated 2022)

Columns and labels:
4T1-RFP-luciferase cells [1] = experiment: Orthotopic 4T1 mouse model of metastasis (second experiment); format: in vivo, Balb/C mice; conditions: ifetroban 50 mg/kg daily or aspirin 12 mg/kg daily from tumor volume 50 mm^3; lungs harvested approx. 4 weeks later; FIG. 3
Protocol: 1×10^5 4T1-RFP-luciferase cells were implanted into the left inguinal mammary fatpads of 6-week old, virgin WT Balb/C female mice as above. Mice were treated by orogastric gavage with ifetroban (50 mg/kg daily) or vehicle control when average tumor volume reached 50 mm^3 as above. Additionally a third group was treated with aspirin (12 mg/kg daily). Lungs were harvested approximately 4 weeks later. Lungs were assessed by whole mount hematoxylin staining to enumerate surface metastases (macro metastases) (FIG. 3).

[2] = Total body weight of 4T1 tumor-bearing mice; format: in vivo, Balb/C mice; conditions: 50 mg/kg daily for 3 weeks; FIG. 5C
Protocol: (§1) 1×10^5 4T1-RFP-luciferase cells were implanted into the left inguinal mammary fat pads of 6-week old, virgin WT Balb/C female mice. Mice were treated by orogastric gavage with ifetroban (50 mg/kg daily; N=8) or vehicle control (N=4) when average tumor volume reached 200 mm^3. […] Mouse total body weight was not affected by Ifetroban treatment (50 mg/kg daily) for 3 weeks (FIG. 5C).

[3] = system: MDA-MB-231 (breast) cancer cells; experiment: Hematogenous metastasis of breast cancer cells (tail vein injection); format: in vivo, nu/nu mice; conditions: 50 mg/kg by orogastric gavage, pre-treated 24 hours, daily for 21 days; FIG. 8
Protocol: (§2) MDA-MB-231 (breast), MiaPaca2 (pancreas) and A549 (lung) cancer cells were delivered by tail vein injection to nu/nu mice pre-treated 24 hours by orogastric gavage with ifetroban (50 mg/kg; N=10 per group) or vehicle (N=10). Mice continued daily treatment for an additional 21 days. On day 21, lungs were harvested and assessed for metastases. N=9, P value, Student's t-test.

4T1-RFP-luciferase cells [4] = experiment: Orthotopic 4T1 mouse model of metastasis (first experiment); format: in vivo, Balb/C mice
Protocol: 1×10^5 4T1-RFP-luciferase cells were implanted into the left inguinal mammary fatpads of 6-week old, virgin WT Balb/C female mice using the following protocol. Mammary tumor cells (4T1-RFP-luciferase cells) are collected by trypsinization, counted, and resuspended in 50 microliters of serum-free media+50 microliters of growth factor-reduced Matrigel, for a total volume of 100 microliters. The cells are loaded into a syringe with a 26-g needle. The cells are injected into the inguinal mammary gland, which lies directly under (and attached to) the skin. The entire injection procedure takes about 10 seconds per mouse. Mice were treated by orogastric gavage with ifetroban (50 mg/kg daily) or vehicle control when average tumor volume reached 200 mm^3, using 8 mice in the ifetroban treatment group, 4 mice in the control group, and 4% sucrose in water for the vehicle. Tumors, lungs and plasma were harvested approximately 3 weeks later. Lungs were assessed by whole mount hematoxylin staining to enumerate surface metastases (macro metastases) (FIG. 1). Lungs were sectioned and stained with hematoxylin and eosin to confirm that hematoxylin-stained nodules were metastatic lesions, and to enumerate microscopic metastases (FIG. 2).
as §1

[5] = system: MiaPaca2 (pancreas) cancer cells; experiment: Hematogenous metastasis of pancreatic cancer cells (tail vein injection); format: in vivo, nu/nu mice; conditions: 50 mg/kg by orogastric gavage, pre-treated 24 hours, daily for 21 days; FIG. 8
Protocol: as §2

MDA-MB-231 cells = experiment: Lung metastases after tail vein injection of MDA-MB-231 cells; format: in vivo, mice; conditions: 50 mg/kg daily by orogastric gavage from 48 h before cell injection, continued 3 weeks; FIG. 4
Protocol: Mice were randomized into groups receiving treatment by orogastric gavage with ifetroban (50 mg/kg daily) or vehicle, using 10 mice in both the ifetroban and control groups and 4% sucrose in water for the vehicle. Mice were treated 48 h prior to hematogenous delivery of MDA-MB-231 cells (1×10^5 cells) by tail vein injection, and ifetroban treatment was continued for 3 weeks thereafter, at which point lungs were collected from each mouse, and lung metastatic lesions visible to the naked eye were counted (FIG. 4).

A549 (lung) cancer cells = experiment: Hematogenous metastasis of lung cancer cells (tail vein injection); format: in vivo, nu/nu mice; conditions: 50 mg/kg by orogastric gavage, pre-treated 24 hours, daily for 21 days; FIG. 8
Protocol: as §2

4T1 cells = experiment: 4T1 cell culture growth and viability; format: cell-based; conditions: treated for 96 hours; FIG. 5A
Source text: For cell culture experiments, vehicle is PBS.

Row | SMILES | surface lung metastases (macro metastases) (4T1-RFP-luciferase cells [1]) | total mouse body weight [2] | hematogenous metastasis to lungs, breast cancer cells [3] | microscopic lung metastases (4T1-RFP-luciferase cells [4]; 50 mg/kg daily by orogastric gavage from tumor volume 200 mm^3, approx. 3 weeks, lung sections, hematoxylin and eosin, FIG. 2) | surface lung metastases (macro metastases) (4T1-RFP-luciferase cells [4]; 50 mg/kg daily by orogastric gavage from tumor volume 200 mm^3, lungs harvested approx. 3 weeks later, whole mount hematoxylin staining, FIG. 1) | primary tumor volume (4T1-RFP-luciferase cells [4]; 50 mg/kg daily for 3 weeks, FIG. 5B) | hematogenous metastasis to lungs, pancreatic cancer cells [5] | lung metastatic lesions visible to the naked eye (MDA-MB-231 cells) | hematogenous metastasis to lungs, lung cancer cells (A549 (lung) cancer cells) | 4T1 cell number (automated cell counting) (4T1 cells) | number of apoptotic 4T1 cells (Annexin V staining) (4T1 cells)
1 | CC(=O)Oc1ccccc1C(=O)O [aspirin] | decrease | – | – | – | – | – | – | – | – | – | –
2 | CCCCCNC(=O)c1coc([C@H]2[C@@H](Cc3ccccc3CCC(=O)O)[C@@H]3CC[C@H]2O3)n1 [ifetroban] | decrease | not affected | decreased | decrease | decrease | did not affect | decreased | decrease | decreased | no ifetroban-mediated changes | no ifetroban-mediated changes
